Measured values from patent US20210238197A1, “NOVEL OXOQUINOLIZINE COMPOUNDS FOR THE TREATMENT AND PROPHYLAXIS OF BACTERIAL INFECTION” (Hoffmann-La Roche Inc., priority 2018, published 2021).
Converted amounts (≈) assume the structure as drawn. Where two headings read alike, the source gives them in different places.

Key:
[1] = test system: A. baumannii (ATCC17978); assay: 50% growth inhibitory concentration (IC50) determination assay, A. baumannii; format: cell-based; settings: Acinetobacter baumannii, ATCC17978; Iso-Sensitest broth, growth by OD 600 nm over 16 h; <0.098 = detection limit
Experimental: (§1) The in vitro antimicrobial activity of the compounds against S. aureus (ATCC29213), K. pneumoniae (ATCC10031), and A. baumannii (ATCC17978), was determined according to the following procedure: The assay used a 10-points Iso-Sensitest broth medium to measure quantitatively the in vitro activity of the compounds against S. aureus ATCC29213, K. pneumoniae ATCC 10031, and A. baumannii ATCC17978. Stock compounds in DMSO were serially two-fold diluted (range from 50 to 0.097 μM final concentration) in 384 wells microtiter plates and inoculated with 49 μL the bacterial suspension in Iso-Sensitest broth medium to have a final cell concentration of ˜5×10^5 CFU/mL in a final volume/well of 50 μL/well. Microtiter plates were incubated at 35±2° C. Bacterial cell growth was determined with the measurement of optical density at λ=600 nm each 20 minutes over a time course of 16 h.

[2] = test system: K. pneumoniae (ATCC10031); assay: 50% growth inhibitory concentration (IC50) determination assay, K. pneumoniae; format: cell-based; settings: Klebsiella pneumoniae, ATCC10031; Iso-Sensitest broth, growth by OD 600 nm over 16 h; <0.098 = detection limit
Experimental: as §1

[3] = test system: S. aureus (ATCC29213); assay: 50% growth inhibitory concentration (IC50) determination assay, S. aureus; format: cell-based; settings: Staphylococcus aureus, ATCC29213; Iso-Sensitest broth, growth by OD 600 nm over 16 h; <0.098 = detection limit
Experimental: as §1

[4] = test system: multiple species and strains; assay: microbe, parasite or virus in culture; set-up: MIC S9 / MIC S7 / MIC S11 / MIC S8 / MIC S10: unit not given beside the values; settings: for MIC S9: E. coli ATCC 35218
Experimental: The MIC of antibacterial compounds against multiple species and strains was determined using the broth microdilution method according to M07-A10 Clinical and Laboratory Standards Institute (CLSI) guidelines (CLSI (2015) Methods for dilution antimicrobial susceptibility tests for bacteria that grow aerobically; Approved Standard, Tenth Edition. CLSI Document M7-A10 (ISBN 1-56238-987-4). Wayne, Pa.: Clinical and Laboratory Standards Institute, 19087, USA.). In short, bacterial strain preparation was performed on D1 and D2. […] 5-10 well-isolated colonies of similar morphology were selected and re-streaked onto fresh agar plates using sterile loops and incubated for 20-24 hr at 35±2° C. Bacterial strains were subcultured two times to ensure fresh inoculums for MIC screening. […] Alternatively, 1-2 colonies were transferred into 500 μL of saline and OD600 was adjusted to ˜0.1 using an OD meter. Bacterial inoculum was diluted by 1:280 for Gram-positive strains and 1:400 for Gram-negative strains into corresponding medium broth (CAMHB, CAMHB+3% lysed horse blood, HTM) (e.g. 35.6 μL of inoculum into 10 mL of CAMHB or 25 μL of inoculum into 10 mL of CAMHB). For compound plate, the compound stock solutions were prepared in 100% DMSO on the day of MIC screening and used immediately. Compound stock concentration=[(highest testing concentration)×100 μL/2 μL] (e.g. if the required highest testing concentration is 64 μg/mL in assay plates, stock concentration=64 μg/mL×100 μL/2 μL=3.2 mg/mL). […] 1 μL of each well was transferred in a new MTP, which served as the test plate by subsequent inoculation. The bacterial suspension prepared above is dispensed at 98 μL/well within 15 minutes after preparation. Negative controls (lack of bacterial cells) and growth control wells (lack of compound) were included in all plates. MTPs were incubated for 18-24 hours at 35±2° C. in ambient air. The MIC was recorded and CFUs were calculated on Day 4. The assay plate was placed on the top of MIC reader, and the magnification mirror was adjusted to read each wells, recording growth status as raw data. Photo images of each assay plates were recorded using Q Count 530 (Spiral Biotech). The MIC value of each compound, expressed as μg/mL, was determined as the lowest concentration required for complete growth inhibition (no visible growth).

[5] = Acinetobacter baumannii, ATCC19606, read-out: MIC S1, A. baumannii ATCC 19606
[6] = Acinetobacter baumannii, ATCC51432, read-out: MIC S2, A. baumannii ATCC 51432
[7] = Acinetobacter baumannii, ATCCBAA747, read-out: MIC S3, A. baumannii ATCC BAA-747
[8] = Escherichia coli, ATCC25922, read-out: MIC S11, E. coli ATCC 25922
[9] = Escherichia coli, ATCCBAA2340, read-out: MIC S10, E. coli ATCC BAA-2340
[10] = Klebsiella pneumoniae, ATCC10031, read-out: MIC S4, K. pneumoniae ATCC 10031
[11] = Klebsiella pneumoniae, ATCC700603, read-out: MIC S5, K. pneumoniae ATCC 700603
[12] = Klebsiella pneumoniae, ATCCBAA2146, read-out: MIC S6, K. pneumoniae ATCC BAA-2146
[13] = Pseudomonas aeruginosa, ATCC27853, read-out: MIC S7, P. aeruginosa ATCC 27853
[14] = Pseudomonas aeruginosa, ATCCBAA2113, read-out: MIC S8, P. aeruginosa ATCC BAA-2113

For `CNc1cc(F)c(F)c2c1[nH]c1ncc(-c3ccc4ccc(C(=O)O)c(=O)n4c3)c(N3CC4[C@H](CC[C@@H]4N(C)C)C3)c12` (stereo partly drawn) [Example 1.09, 7-[4-[cis-(4S)-4-(dimethylamino)-3,3a,4,5,6,6a-hexahydro-1H-cyclopenta[c]pyrrol-2-yl]-5,6-difluoro-8-(methylamino)-9H-pyrido[2,3-b]indol-3-yl]-4-oxo-quinolizine-3-carboxylic acid], which IC50 [1] is on record?
Its IC50 is less than 0.098 µM.

What about the IC50 [2] of the same molecule?
The IC50 was less than 0.098 µM.

What about the IC50 [3] of the same molecule?
Its IC50 is less than 0.098 µM.

For `CNc1cc(F)c(F)c2c1[nH]c1ncc(-c3ccc4ccc(C(=O)O)c(=O)n4c3)c(N3C[C@@H]4[C@H](C3)[C@H]4N(C)C)c12` [Example 1.13, 7-(4-((1R,5S,6S)-6-(dimethylamino)-3-azabicyclo[3.1.0]hexan-3-yl)-5,6-difluoro-8-(methylamino)-9H-pyrido[2,3-b]indol-3-yl)-4-oxo-4H-quinolizine-3-carboxylic acid], which IC50 [1] is on record?
Its IC50 is less than 0.098 µM.

And the IC50 [2]?
The IC50 was less than 0.098 µM.

What about the IC50 [3] of the same molecule?
The IC50 was less than 0.098 µM.

What does the source list for `CNc1cc(F)c(C#N)c2c1[nH]c1ncc(-c3ccc4ccc(C(=O)O)c(=O)n4c3)c(N(C)C)c12` [Example 1.18, 7-[5-cyano-4-(dimethylamino)-6-fluoro-8-(methylamino)-9H-pyrido[2,3-b]indol-3-yl]-4-oxo-quinolizine-3-carboxylic acid]?
MIC [4, 5]: 0.092 mg/L (≈ 0.196 µM); MIC [4, 6]: 0.367 mg/L (≈ 0.78 µM); MIC [4, 7]: 0.184 mg/L (≈ 0.391 µM); MIC S9 [4]: 0.046; MIC [4, 8]: 0.551 mg/L (≈ 1.17 µM); MIC [4, 9]: 0.046 mg/L (≈ 0.0978 µM); MIC [4, 10]: 0.046 mg/L (≈ 0.0978 µM); MIC [4, 11]: 0.092 mg/L (≈ 0.196 µM); MIC [4, 12]: 0.735 mg/L (≈ 1.56 µM); MIC [4, 13]: 0.367 mg/L (≈ 0.78 µM); MIC [4, 14]: 0.184 mg/L (≈ 0.391 µM)

What does the source list for `CNc1cc(F)c(F)c2c1[nH]c1ncc(-c3cc(C)c4ccc(C(=O)O)c(=O)n4c3)c(N(C)C)c12` [Example 1.20, 7-[4-(dimethylamino)-5,6-difluoro-8-(methylamino)-9H-pyrido[2,3-b]indol-3-yl]-9-methyl-4-oxo-quinolizine-3-carboxylic acid]?
MIC [4, 5]: 0.187 mg/L (≈ 0.392 µM); MIC [4, 6]: 1.49 mg/L (≈ 3.12 µM); MIC [4, 7]: 0.746 mg/L (≈ 1.56 µM); MIC S9 [4]: 0.559; MIC [4, 8]: 0.42 mg/L (≈ 0.88 µM); MIC [4, 9]: 0.559 mg/L (≈ 1.17 µM); MIC [4, 10]: 0.187 mg/L (≈ 0.392 µM); MIC [4, 11]: 1.49 mg/L (≈ 3.12 µM); MIC [4, 12]: 2.98 mg/L (≈ 6.25 µM); MIC [4, 13]: 2.98 mg/L (≈ 6.25 µM); MIC [4, 14]: 2.24 mg/L (≈ 4.69 µM)

Which MIC [4, 5] does the source give for `CNc1cc(F)c(F)c2c1[nH]c1ncc(-c3ccc4ccc(C(=O)O)c(=O)n4c3)c(N3CCC(C4(N)CC4)C3)c12` (stereo not drawn) [Example 1.21, 7-[4-[3-(1-aminocyclopropyl)pyrrolidin-1-yl]-5,6-difluoro-8-(methylamino)-9H-pyrido[2,3-b]indol-3-yl]-4-oxo-quinolizine-3-carboxylic acid] here?
The MIC was 0.603 mg/L (≈ 1.11 µM).

What about the MIC [4, 6] of the same molecule?
The MIC was 1.21 mg/L (≈ 2.22 µM).

And the MIC [4, 7]?
Its MIC is 1.21 mg/L (≈ 2.22 µM).

What about the “MIC S9” value [4] of the same molecule?
The value was 0.603.

What about the MIC [4, 8] of the same molecule?
Its MIC is 0.34 mg/L (≈ 0.624 µM).

And the MIC [4, 9]?
The MIC was 0.302 mg/L (≈ 0.555 µM).

What about the MIC [4, 10] of the same molecule?
The MIC was 0.038 mg/L (≈ 0.0698 µM).

What about the MIC [4, 11] of the same molecule?
The MIC was 4.83 mg/L (≈ 8.87 µM).

What about the MIC [4, 12] of the same molecule?
The MIC was 4.83 mg/L (≈ 8.87 µM).

What about the MIC [4, 13] of the same molecule?
The MIC was 1.21 mg/L (≈ 2.22 µM).

And the MIC [4, 14]?
The MIC was 2.41 mg/L (≈ 4.43 µM).

Which results are given for `CNc1cc(F)c(F)c2c1[nH]c1ncc(-c3ccc4ccc(C(=O)O)c(=O)n4c3)c(N3C[C@@H]4CCN(C)[C@@H]4C3)c12` [Example 3.03B, 7-[4-[(3aS,6aS)-1-methyl-2,3,3a,4,6,6a-hexahydropyrrolo[3,4-b]pyrrol-5-yl]-5,6-difluoro-8-(methylamino)-9H-pyrido[2,3-b]indol-3-yl]-4-oxo-quinolizine-3-carboxylic acid]?
IC50 [1]: < 0.098 µM; IC50 [2]: < 0.098 µM; IC50 [3]: < 0.098 µM
